The nature of series [1]: Neutralization of compound X by ethyl 2-mercaptoacetate (LCMS). The series is classed as physicochemical. Particulars: PBS, RT; for Peak Areas (LCMS): 100 μM X + 10 mM ethyl 2-mercaptoacetate. On the procedure:
100 μM solution of compound X in phosphate buffered saline was incubated at room temperature with 10 mM of ethyl-2-mercaptoacetate, and the change of the concentration of compound X, as well as the formation of the intermediate compound of neutralization (XXI) and the final compound of neutralization XXII was determined by LCMS analysis of the mixture. The reaction scheme of neutralization is presented below. The peak areas of compound X, intermediate neutralization product, Q1 (compound XXI) and final neutralization product, Q2 (compound XXII) are presented in the Table 8 below, and in FIG. 18.

For series [2], the system named is Human respiratory syncytial virus (RSV). Kind of series: Viral inactivation, modified plaque assay. Particulars: 6 h, Ringer's/Lactate solution. It counts as cell-based. The procedure: Human respiratory syncytial virus (RSV) was inactivated by using Compound VI or Compound X. For that purpose, sucrose gradient-purified virus was treated with 100 μM of Compound VI and Compound X at RT. […] The virus titers were determined using standard 10× serial dilutions in a modified plaque assay. For mock-treated virus no significant changes in RSV infectivity were found even after 6 h incubation at RT (in different experiments, the reduction of titers were in the range of 0.11-0.36 Login PFU/mL).
Inactivation of RSV with different concentrations of Compound XVI at RT and 40° C. was performed as described in Example 9.

A further series has as its system B. cereus. Kind of series: Bacterial inactivation in Ringer's solution, colony agar plate count. It counts as cell-based. Particulars: 100 μM, RT, 1 h treatment. On the procedure:
(§1) A panel of G+F and G-bacteria were inactivated in their respective growth medium using compound VI, compound X, and compound XIV. All cells were grown in corresponding media to middle log phase, collected by centrifugation, re-suspended in Ringer's solution (RS), and treated at RT with 100 μM of compound VI, compound X, and compound XIV, which were added to the suspension as 100× concentrate in RS. Controls received RS only. At the end of the incubation, unreacted compound VI, compound X, and compound XIV were neutralized with 10 mM sodium thiophosphate during incubation at RT for 30 min. The viable cells were enumerated using serial dilutions by standard colony agar plate count. Table 1 summarizes the typical results of 1 h treatment of E. coli, P. fluorescens, Y. enterocolitica, B. cereus, S. aureus, and S. epidermidis with compound VI, compound X, and compound XIV.

For a further series, the system named is E. coli. The series is described as above. It counts as cell-based. The note with it: 100 μM, RT, 1 h treatment. The procedure: as §1
A further series concerns P. fluorescens. The description is as above. It counts as cell-based. Particulars: 100 μM, RT, 1 h treatment. On the procedure:
as §1

A further series deals with S. aureus. Described as above. It counts as cell-based. Particulars: 100 μM, RT, 1 h treatment. The procedure: as §1
The test system of another series is S. epidermidis. Described as above. It counts as cell-based. The note with it: 100 μM, RT, 1 h treatment. On the procedure:
as §1

The subject of the next series is Y. enterocolitica. Described as above. The note with it: 100 μM, RT, 1 h treatment. The series is classed as cell-based. On the procedure:
as §1

The test system of another series is Babesia divergens Rouen. Put plainly: Inactivation of blood-borne parasites in fresh human red blood cells. The series is classed as cell-based. Particulars: 250 μM, 24 hours, physiological temperature. On the procedure: (§2) Inactivation of blood-borne parasites, Plasmodium falciparum 3D7 and Babesia divergens Rouen, was conducted in fresh human red blood cells for 24 hours at physiological temperature. […] Above six logs inactivation of Candida albicans, a representative of pathogenic fungi, and three logs inactivation of Tetrahymena thermophila, a model organism for ciliated protozoa, were achieved by compound XIV at 250 μM in their respective growth media.

The subject of series [3] is Plasmodium falciparum 3D7. The description is as above. The note with it: 250 μM, 24 hours, physiological temperature. The series is classed as cell-based. On the procedure: as §2
The test system of a further series is Candida albicans. Kind of series: Fungal inactivation in growth media. It counts as cell-based. The note with it: 250 μM. The procedure: as §2

Take `CCOC(=O)CSCCNCCCN(C)CCCCN(C)CCCN(C)CCCNCCSCC(=O)OCC` [XXII]: the “Peak Areas (LCMS)” value is 48.7 in series [1] (Time 6 min); 131.9 in series [1] (Time 14.5 min); 214.4 in series [1] (Time 23.1 min); 280.7 in series [1] (Time 31.6 min); 349.3 in series [1] (Time 40.2 min); 397.1 in [1] (Time 48.7 min). The “Peak Areas (LCMS)” value in series [1] (Time 57.3 min) stood at 424.3; in series [1] (Time 65.8 min) it was 479.4; in [1] (Time 74.3 min) it was 489.3; in [1] (Time 82.9 min), 498.6; in series [1] (Time 91.4 min) it was 513.2; in series [1] (Time 100.0 min) it was 527. The “Peak Areas (LCMS)” value in series [1] (Time 108.5 min) worked out at 520.5; in series [1] (Time 117.1 min) it was 548.8; in series [1] (Time 125.6 min), 536.5.
Regarding `CN(CCCN1CC1)CCCN1CC1` [Compound XVI, 3-(aziridin-1-yl)-N-(3-(aziridin-1-yl)propyl)-N-methylpropan-1-amine], the “RSV Inactivation (difference between TO titer and titer)” value in [2] (40° C., 100 μM) is reported as >6.48 Log10 PFU/mL; in series [2] (40° C., 250 μM) it was >6.48 Log10 PFU/mL; in series [2] (40° C., 500 μM) it was >6.48 Log10 PFU/mL; in [2] (RT, 100 μM), 5.02 Log10 PFU/mL; in series [2] (RT, 250 μM), 5.50 Log10 PFU/mL; in series [2] (RT, 500 μM), >6.48 Log10 PFU/mL. Moreover, the “RSV titer” value in [2] (40° C., 100 μM) was <0.52 Log10 PFU/mL; in [2] (40° C., 250 μM) it was <0.52 Log10 PFU/mL; in series [2] (40° C., 500 μM) it was <0.52 Log10 PFU/mL; in series [2] (RT, 100 μM), 1.98 Log10 PFU/mL; in [2] (RT, 250 μM), 1.50 Log10 PFU/mL; in series [2] (RT, 500 μM), <0.52 Log10 PFU/mL.
Turning to `CCOC(=O)CSCCNCCCN(C)CCCN(C)CCCCN(C)CCCN1CC1` [XXI], in series [1] (10 mM ethyl 2-mercaptoacetate), the “first order rate constant of concentration decrease” value amounted to 0.026 min⁻¹. Further, the “Peak Areas (LCMS)” value in series [1] (Time 6 min) is reported as 181.6; in [1] (Time 14.5 min), 307; in [1] (Time 23.1 min), 363.5; in series [1] (Time 31.6 min), 375.8; in series [1] (Time 40.2 min), 390.1; in series [1] (Time 48.7 min), 368.5. Besides, the “Peak Areas (LCMS)” value amounted to 338.6 in series [1] (Time 57.3 min); 331.1 in series [1] (Time 65.8 min); 306.5 in series [1] (Time 74.3 min); 268.6 in series [1] (Time 82.9 min); 256 in series [1] (Time 91.4 min); 227.8 in series [1] (Time 100.0 min). Besides, the “Peak Areas (LCMS)” value was found to be 202.2 in series [1] (Time 108.5 min), 195 in [1] (Time 117.1 min) and 174 in series [1] (Time 125.6 min).
In the case of `CN(CCCCN(C)CCCN(C)CCCN1CC1)CCCN(C)CCCN1CC1` [Compound XIV], the Titer was ≤1.00 Log10CFU/mL with B. cereus; 3.51 Log10CFU/mL with E. coli; ≤1.00 Log10CFU/mL in the series with P. fluorescens; 5.08 Log10CFU/mL with S. aureus; 6.32 Log10CFU/mL in the series with S. epidermidis; 5.04 Log10CFU/mL in the series on Y. enterocolitica. Further, the “reduction of the number of viable babesia” value with Babesia divergens Rouen came to 8 logs. The “reduction of the number of viable plasmodium organisms” value in series [3] is reported as ≥ 7 logs. The “inactivation of Candida albicans” value with Candida albicans is on record as “Above six”.

The values above are taken from patent US20250127168A1, “METHOD FOR PATHOGENS, MICROORGANISMS, AND PARASITES INACTIVATION” (New York Blood Center, Inc., priority 2018, published 2025).
